The test system of series [1] is Plasmodium falciparum. The series is described as follows: Antimicrobial activity against chloroquine-resistant Plasmodium falciparum W2 infected in human erythrocytes assessed as incorporation of [3H]-hypoxanthine by beta counting analysis. It counts as functional, organism-based.
Series [2] relates to Plasmodium falciparum. The series is described as follows: Antimicrobial activity against Plasmodium falciparum Cam6 infected in human erythrocytes after 72 hrs by SYBR green I fluorescence-based method. It counts as functional, organism-based. Particulars: Cam6, 72 h.
Series [3] has as its system Plasmodium falciparum. The experiment in a line: Antimicrobial activity against Plasmodium falciparum Thai6 infected in human erythrocytes after 72 hrs by SYBR green I fluorescence-based method. The note with it: Thai6, 72 h. It counts as functional, organism-based.
Series [4] concerns Plasmodium falciparum. The series is described as follows: Antimicrobial activity against chloroquine-sensitive Plasmodium falciparum 3D7 infected in human erythrocytes after 72 hrs by SYBR green I fluorescence-based method. It counts as functional, organism-based. The note with it: 3D7, 72 h.
For series [5], the system named is Plasmodium falciparum. The series is described as follows: Antimicrobial activity against chloroquine/MQ/atrovaquone-resistant Plasmodium falciparum TM90C2B infected in human erythrocytes after 72 hrs by SYBR green I fluorescence-based method. It counts as functional, organism-based.
The subject of series [6] is Plasmodium falciparum. The series is described as follows: Antimicrobial activity against Mq-resistant Plasmodium falciparum D6 infected in human erythrocytes after 72 hrs by SYBR green I fluorescence-based method. It counts as functional, organism-based. Particulars: D6, 72 h.
Series [7] deals with Plasmodium falciparum. The series is described as follows: Antimicrobial activity against chloroquine/SP-resistant Plasmodium falciparum W2 infected in human erythrocytes after 72 hrs by SYBR green I fluorescence-based method. It counts as functional, organism-based. Particulars: W2, 72 h.
The subject of series [8] is Plasmodium falciparum. The series is described as follows: Antimicrobial activity against chloroquine-resistant Plasmodium falciparum K1. It counts as functional, organism-based.
Series [9] concerns Plasmodium falciparum. The series is described as follows: Antimicrobial activity against chloroquine-sensitive Plasmodium falciparum 3D7. It counts as functional, organism-based.
For series [10], the system named is Plasmodium falciparum. The series is described as follows: Antimicrobial activity against Plasmodium falciparum Dd2. It counts as functional.
A short description of series [11]: Inhibition of beta-hematin formation. It counts as physicochemical.
In series [12] the test system is Plasmodium falciparum. The experiment in a line: Antimicrobial activity against Plasmodium falciparum 7G8 infected in human erythrocytes after 72 hrs by SYBR green I fluorescence-based method. It counts as functional, cell-based. Particulars: 7G8, 72 h.
Series [13] concerns Plasmodium falciparum. The experiment in a line: Antimicrobial activity against Plasmodium falciparum Dd2 infected in human erythrocytes after 72 hrs by SYBR green I fluorescence-based method. It counts as functional, cell-based. The note with it: Dd2, 72 h.
The subject of series [14] is Plasmodium falciparum. The experiment in a line: Antimicrobial activity against Plasmodium falciparum D6 infected in human erythrocytes after 72 hrs by SYBR green I fluorescence-based method. It counts as functional, organism-based. Particulars: D6, 72 h.

pIC50: −log10 of the molar value.

Broadly, the pIC50 is the negative decadic logarithm of the IC50, by convention in mol/L. On to `NCCNCCNc1ccnc2cc(Cl)ccc12`, for which the pIC50 with Plasmodium falciparum [1] was 7.22.
For `CN(C)C(C)(C)CNc1ccnc2cc(Cl)ccc12`, the pIC50 in the series with Plasmodium falciparum [2], in the series on Plasmodium falciparum [3], with Plasmodium falciparum [4], in the series on Plasmodium falciparum [5], in the series on Plasmodium falciparum [6] and in the series on Plasmodium falciparum [7] was 8.26 in each case.
Consider `COc1cc(NC(C)CCCN)c2ncccc2c1` (stereo not drawn) [PRIMAQUINE], for which the pIC50 in the series with Plasmodium falciparum [8], in the series with Plasmodium falciparum [9] and with Plasmodium falciparum [10] was 6.34 in each case.
As to `CCN(CC)CCCC(C)Nc1ccnc2cc(Cl)ccc12` (stereo not drawn) [CHLOROQUINE], the pIC50 in series [11] was 4.55.
With `CC(C)(N)CNc1ccnc2cc(Cl)ccc12`, the pIC50 in the series with Plasmodium falciparum [2], with Plasmodium falciparum [3], in the series on Plasmodium falciparum [4], with Plasmodium falciparum [5], with Plasmodium falciparum [6] and in the series on Plasmodium falciparum [7] was 8.26 throughout.
On to `COc1cc(NC(C)CCCNc2ccnc3cc(Cl)ccc23)c2ncccc2c1` (stereo not drawn), for which the pIC50 with Plasmodium falciparum [8], with Plasmodium falciparum [9] and in the series with Plasmodium falciparum [10] was 7.10 in each case.
For `CCN(CC)CCNc1c(C)cnc2cc(Cl)ccc12`, the pIC50 in the series with Plasmodium falciparum [12], with Plasmodium falciparum [13] and in the series with Plasmodium falciparum [14] was 9.05 each time.

The values are drawn from ChEMBL document CHEMBL3396969, “Reemergence of chloroquine (CQ) analogs as multi-targeting antimalarial agents: a review” (Eur J Med Chem, 2015).
